We go through nine compounds from PubChem BioAssay (NCI).

Common to all, as to test: NCI tumour cell line growth inhibition, 48 h
The test system of assay [1] is MOLT-4 leukemia.
Assay [2] relates to EKVX NSCLC.
The test system of assay [3] is CAKI-1 renal.
Assay [4] deals with SNB-75 CNS.
Assay [5] concerns A549 NSCLC.
Assay [6] deals with K-562 leukemia.
The test system of assay [7] is UACC-62 melanoma.
The test system of assay [8] is SK-MEL-28 melanoma.
Assay [9] relates to NCI-H460 lung.
Assay [10] concerns MDA-N.

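Method: 48-hour compound exposure of cells in 96-well plates, five concentrations, linear interpolation of endpoints. Definition used: TGI = concentration required for complete inhibition of growth.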

On to `COc1cc(-c2cc(=O)c3cc4c(=O)cc(-c5cc(OC)c(OC)c(OC)c5)oc4cc3o2)cc(OC)c1OC`, for which the TGI in [1] was greater than 100 µM; in assay [2] it was greater than 100 µM; in assay [3], greater than 31.6 µM; in assay [4], 32.3 µM; in [5] it was greater than 100 µM; in [6], greater than 56 µM. In addition, the TGI in assay [7] is greater than 64.5 µM; in [8], greater than 100 µM; in [9], greater than 100 µM; in assay [10], greater than 100 µM.

In the case of `CCCCNC(=S)N/N=C/c1cccc(C)n1`, the TGI was 55.1 µM in assay [1]; greater than 100 µM in assay [2]; 87.8 µM in [3]; greater than 100 µM in assay [4]; greater than 100 µM in assay [5]; 44.5 µM in [6]. For the same compound, the TGI is 68.3 µM in [7], greater than 100 µM in assay [8], greater than 100 µM in assay [9] and greater than 100 µM in assay [10].

Take `CSc1c(C#N)c(N)n(-c2ccc(C)cc2)c(=O)c1C#N`: the TGI in [1], in [2], in [3], in assay [4], in [5] and in assay [6] was greater than 100 µM each time. In addition, the TGI in [7], in assay [8], in [9] and in assay [10] was greater than 100 µM in each case.

As for `S=c1[nH]c2ccc(Br)cc2c(=S)s1`, the TGI is greater than 100 µM in [1]; 91.3 µM in assay [2]; 57.9 µM in [3]; 93 µM in assay [4]; greater than 100 µM in [5]; greater than 100 µM in assay [6]. Besides, the TGI in assay [7] was 50.7 µM; in assay [8] it was greater than 100 µM; in [9], 62.4 µM; in assay [10], 54 µM.

Regarding `CCOC(CNCCC(=O)OC)OCC`, the TGI in assay [1], in [2], in [3], in assay [4], in [5] and in assay [6] was greater than 10 µM each time. The TGI in assay [7], in [8], in assay [9] and in assay [10] was greater than 10 µM each time.

`O=c1[nH]cnc2c1ncn2[C@@H]1C[C@@H]1CO`: the TGI in assay [1], in assay [2], in assay [3], in assay [4], in [5] and in [6] was greater than 100 µM each time. Moreover, the TGI in assay [7], in assay [8], in [9] and in [10] was greater than 100 µM in each case.

For `Nc1nc(Cl)cc(NCC2(CO)CCC(CCc3ccccc3)C2)n1` (stereo not given), the TGI in assay [1] is 11.7 µM; in assay [2], 25.9 µM; in assay [3] it was 30.2 µM; in assay [4], 39.4 µM; in [5] it was 32 µM; in [6] it was 41.6 µM. Besides, the TGI in assay [7] was found to be 28.3 µM; in assay [8] it was 37.3 µM; in assay [9], 27.3 µM; in assay [10] it was 28.1 µM.

Take `CCc1c[n+]([O-])c(C)cc1[N+](=O)[O-]`: the TGI in assay [1], in [2], in [3], in assay [4], in assay [5] and in [6] was greater than 100 µM each time. Moreover, the TGI was greater than 100 µM in [7], greater than 100 µM in assay [8], 63.5 µM in assay [9] and greater than 100 µM in [10].

On to `O=c1ccn(C2OC(CO)C(P(=O)(O)O)C2O)c(=O)[nH]1` (stereo not given), for which the TGI in [1], in [2], in assay [3], in assay [4], in assay [5] and in [6] was greater than 100 µM throughout. For the same compound, the TGI in [7], in assay [8], in [9] and in assay [10] was greater than 100 µM in each case.
